These results are taken from ChEMBL document CHEMBL5120838, “Synthesis and biological evaluation of geniposide derivatives as inhibitors of hyperuricemia, inflammatory and fibrosis” (Eur J Med Chem, 2022).

Calls of active or inactive are those of the source. No cut-off for these calls is given here.

Experiment [1] deals with Mus musculus. Nature of the experiment: Anti-hyperuricemic activity against adenine and potassium oxonate-induced hyperuricemia Kunming mouse model assessed as blood urea nitrogen level at 200 mg/kg, po administered via gavage once daily for 2 weeks (reference value: 9.88 +/- 1.21 mM). It counts as functional.
For experiment [2], the system named is Mus musculus. Briefly: Anti-hyperuricemic activity against adenine and potassium oxonate-induced hyperuricemia Kunming mouse model assessed as reduction in serum creatinine level at 200 mg/kg, po administered via gavage once daily for 2 weeks (reference value: 87.62 +/- 0.67 uM). It counts as functional.
Experiment [3] has as its system HK-2. Nature of the experiment: Antiinflammatory activity in hyperuricemic human HK-2 cells assessed as reduction in TNF-alpha level at 200 uM. It counts as functional, cell-based.
Experiment [4] has as its system HK-2. Briefly: Antiinflammatory activity in hyperuricemic human HK-2 cells assessed as reduction in IL-1beta level at 200 uM. It counts as functional, cell-based.
The test system of experiment [5] is Mus musculus. Nature of the experiment: Anti-hyperuricemic activity against adenine and potassium oxonate-induced hyperuricemia Kunming mouse model assessed as reduction in serum uric acid level at 200 mg/kg, po administered via gavage once daily for 2 weeks (reference value: 318.16 +/- 3.31 uM). It is filed as functional.
In experiment [6] the test system is HK-2. Briefly: Antiinflammatory activity in hyperuricemic human HK-2 cells assessed as reduction in TGF-beta level at 200 uM. It is filed as functional, cell-based.
Experiment [7] has as its target Xanthine dehydrogenase/oxidase (Bos taurus, UniProt P80457). Briefly: Inhibition of bovine XOD assessed as inhibition of uric acid formation using xanthine as substrate preincubated with enzyme for 5 mins followed by substrate addition and measured for 30 mins by microplate reader analysis.
Experiment [8] concerns Mus musculus. Nature of the experiment: Anti-hyperuricemic activity against adenine and potassium oxonate-induced hyperuricemia Kunming mouse model assessed as blood urea nitrogen level at 20 mg/kg, po administered via gavage once daily for 2 weeks (reference value: 9.88 +/- 1.21 mM). It is filed as functional.
In experiment [9] the test system is Mus musculus. Briefly: Renal protective activity against adenine and potassium oxonate-induced hyperuricemia Kunming mouse model assessed as reduction in urate accumulation in kidney at 20 mg/kg, po administered via gavage for 2 weeks by polarization microscopic analysis. It is filed as functional, organism-based.
For experiment [10], the system named is Mus musculus. Nature of the experiment: Anti-hyperuricemic activity against adenine and potassium oxonate-induced hyperuricemia Kunming mouse model assessed as reduction in serum uric acid level at 20 mg/kg, po administered via gavage once daily for 2 weeks (reference value: 318.16 +/- 3.31 uM). It is filed as functional.
In experiment [11] the test system is Mus musculus. Briefly: Anti-hyperuricemic activity against adenine and potassium oxonate-induced hyperuricemia Kunming mouse model assessed as reduction in creatinine level at 20 mg/kg, po administered via gavage once daily for 4 weeks (reference value: 76.87 +/- 0.67 uM). It is filed as functional.
Experiment [12] has as its system Mus musculus. Nature of the experiment: Anti-hyperuricemic activity against adenine and potassium oxonate-induced hyperuricemia Kunming mouse model assessed as reduction in serum creatinine level at 20 mg/kg, po administered via gavage once daily for 2 weeks (reference value: 87.62 +/- 0.67 uM). It counts as functional.
The species entered for experiment [13] is Mus musculus. The settings on record: Kunming, dose 20.0 mg/kg, route po, time 2.0 weeks.
Description: In vivo inhibition of XOD in adenine and potassium oxonate-induced hyperuricemia Kunming mouse model assessed as reduction in XOD activity in liver at 20 mg/kg, po administered via gavage once daily for 2 weeks
Experiment [14] relates to Mus musculus. Briefly: Anti-hyperuricemic activity against adenine and potassium oxonate-induced hyperuricemia Kunming mouse model assessed as blood urea nitrogen level at 20 mg/kg, po administered via gavage once daily for 4 weeks (reference value: 15.25 +/- 1.21 mM). It counts as functional.
In experiment [15] the test system is Mus musculus. Briefly: Anti-hyperuricemic activity against adenine and potassium oxonate-induced hyperuricemia Kunming mouse model assessed as reduction in serum uric acid level at 20 mg/kg, po administered via gavage once daily for 4 weeks (reference value: 356.15 +/- 3.31 uM). It counts as functional.
The test system of experiment [16] is Mus musculus. Nature of the experiment: Nephroprotective activity against adenine and potassium oxonate-induced hyperuricemia Kunming mouse model assessed as reduction in renal tubule dilation at 20 mg/kg, po administered via gavage and measured after 21 days by hematoxylin-eosin and Masson trichrome staining based optical microscopic analysis. The note with it: time 21.0 day. It is filed as functional, organism-based.

In experiment [17] the test system is Mus musculus. Nature of the experiment: Nephroprotective activity against adenine and potassium oxonate-induced hyperuricemia Kunming mouse model assessed as reduction in cytoplasmic vacuolation of renal tubular epithelial cells at 20 mg/kg, po administered via gavage and measured after 21 days by hematoxylin-eosin and Masson trichrome staining based optical microscopic analysis. It is filed as functional, organism-based. The note with it: time 21.0 day.

Experiment [18] concerns Mus musculus. Nature of the experiment: Nephroprotective activity against adenine and potassium oxonate-induced hyperuricemia Kunming mouse model assessed as reduction in tubular-interstitial lesion development at 20 mg/kg, po administered via gavage and measured after 21 days by hematoxylin-eosin and Masson trichrome staining based optical microscopic analysis. It is filed as functional, organism-based. The settings on record: time 21.0 day.

Experiment [19] concerns Mus musculus. Briefly: Nephroprotective activity against adenine and potassium oxonate-induced hyperuricemia Kunming mouse model assessed as reduction in connective tissue hyperplasia at 20 mg/kg, po administered via gavage and measured after 21 days by hematoxylin-eosin and Masson trichrome staining based optical microscopic analysis. The note with it: time 21.0 day. It counts as functional, organism-based.

Experiment [20] concerns Mus musculus. Nature of the experiment: Nephroprotective activity against adenine and potassium oxonate-induced hyperuricemia Kunming mouse model assessed as reduction in neutrophils infiltrations at 20 mg/kg, po administered via gavage and measured after 21 days by hematoxylin-eosin and Masson trichrome staining based optical microscopic analysis. It is filed as functional, organism-based. The note with it: time 21.0 day.

The test system of experiment [21] is Mus musculus. Nature of the experiment: Nephroprotective activity against adenine and potassium oxonate-induced hyperuricemia Kunming mouse model assessed as appearance of clear tubular structures at 20 mg/kg, po administered via gavage and measured after 21 days by hematoxylin-eosin and Masson trichrome staining based optical microscopic analysis. The settings on record: time 21.0 day. It counts as functional, organism-based.

Xanthine dehydrogenase/oxidase, sequence (P80457 whole entry): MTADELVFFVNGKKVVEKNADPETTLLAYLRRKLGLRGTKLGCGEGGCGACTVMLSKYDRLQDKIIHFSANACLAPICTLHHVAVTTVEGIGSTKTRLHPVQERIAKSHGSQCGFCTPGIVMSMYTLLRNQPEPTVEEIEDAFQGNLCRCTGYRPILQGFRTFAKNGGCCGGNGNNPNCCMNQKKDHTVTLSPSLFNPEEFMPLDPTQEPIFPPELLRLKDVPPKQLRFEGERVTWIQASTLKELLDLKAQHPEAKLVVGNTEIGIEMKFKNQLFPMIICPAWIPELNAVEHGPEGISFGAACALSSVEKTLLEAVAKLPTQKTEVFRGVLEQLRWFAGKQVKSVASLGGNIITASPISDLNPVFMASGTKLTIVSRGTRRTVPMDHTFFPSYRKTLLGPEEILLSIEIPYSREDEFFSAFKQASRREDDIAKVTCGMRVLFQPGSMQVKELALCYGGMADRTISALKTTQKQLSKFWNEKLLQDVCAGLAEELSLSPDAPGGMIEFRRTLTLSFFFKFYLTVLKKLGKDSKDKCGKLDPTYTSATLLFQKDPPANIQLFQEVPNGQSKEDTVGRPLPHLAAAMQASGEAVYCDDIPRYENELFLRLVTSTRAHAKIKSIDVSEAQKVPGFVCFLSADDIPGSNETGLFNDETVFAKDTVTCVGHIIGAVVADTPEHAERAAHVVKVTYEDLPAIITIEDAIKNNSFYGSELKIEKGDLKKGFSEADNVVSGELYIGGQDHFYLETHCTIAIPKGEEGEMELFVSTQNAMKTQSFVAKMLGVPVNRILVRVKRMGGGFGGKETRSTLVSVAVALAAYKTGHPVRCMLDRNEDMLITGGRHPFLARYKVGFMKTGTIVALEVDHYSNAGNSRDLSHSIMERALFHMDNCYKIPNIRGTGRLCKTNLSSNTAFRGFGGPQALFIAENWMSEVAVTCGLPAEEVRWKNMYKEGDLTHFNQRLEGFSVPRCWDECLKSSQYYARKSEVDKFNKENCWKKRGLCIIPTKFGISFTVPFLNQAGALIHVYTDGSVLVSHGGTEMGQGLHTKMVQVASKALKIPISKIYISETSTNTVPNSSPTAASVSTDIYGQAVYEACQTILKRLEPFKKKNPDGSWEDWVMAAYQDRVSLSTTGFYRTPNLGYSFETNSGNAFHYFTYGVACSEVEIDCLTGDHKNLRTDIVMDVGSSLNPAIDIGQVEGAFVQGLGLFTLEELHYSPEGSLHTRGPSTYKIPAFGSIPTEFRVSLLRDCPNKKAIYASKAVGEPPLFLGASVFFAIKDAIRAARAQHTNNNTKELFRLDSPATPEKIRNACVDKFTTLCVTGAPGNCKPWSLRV

In general, IC50 refers to the midpoint of a concentration-inhibition curve. For `COC(=O)C1=CO[C@@H](O[C@@H]2O[C@H](CO)[C@@H](O)[C@H](O)[C@H]2O)[C@@H]2C(CO)=CC[C@H]12` [GENIPOSIDE], the Activity with Mus musculus [1] worked out at 7 mM; in the experiment on Mus musculus [2], 75.09 µM; in the experiment on Mus musculus [5], 236.72 µM. In addition, the result with HK-2 [3], in the experiment with HK-2 [4] and with HK-2 [6] was Active. Also, in [7], the IC50 came to 161 µM.

On to `Oc1ncnc2[nH]ncc12` [ALLOPURINOL], for which the Activity in the experiment on Mus musculus [8] is 6.3 mM; in the experiment with Mus musculus [10], 233.62 µM; in the experiment with Mus musculus [11] it was 47.26 µM; in the experiment on Mus musculus [12] it was 63.31 µM; in the experiment on Mus musculus [14], 12.58 mM; in the experiment on Mus musculus [15] it was 193.68 µM. Also, the result in the experiment on Mus musculus [9] was Active. The inhibition entry in the experiment filed under Mus musculus [13] was “Active”.

With `CC(=O)OCC1=CC[C@@H]2C(C(=O)Nc3ccc(C#N)cc3)=CO[C@@H](O[C@@H]3O[C@H](COC(C)=O)[C@@H](OC(C)=O)[C@H](OC(C)=O)[C@H]3OC(C)=O)[C@H]12`, the result in the experiment on Mus musculus [16], in the experiment with Mus musculus [17], with Mus musculus [18], in the experiment with Mus musculus [19], in the experiment with Mus musculus [20] and with Mus musculus [21] was Active. For the same molecule, the Activity in the experiment on Mus musculus [8] amounted to 7.29 mM; with Mus musculus [10] it was 244.57 µM; in the experiment on Mus musculus [12], 89.09 µM. Also, the IC50 in [7] amounted to 1.86 µM.
